Results from ChEMBL document CHEMBL1201862, “PubChem BioAssay data set” (2004).
The source made the active and inactive calls. Cut-off read from the data, not from the text of the source, for most assays here: actives have a measured IC50 and inactives only a lower limit.

What was measured:
Type in all cases: functional
[1] = molecular target: T1, Replicative DNA helicase DnaB (Mycobacterium tuberculosis, UniProt P9WMR3); test: DnaB intein splicing inhibitors, dose response, biochemical, cell-free fluorescence (AID 449749)
T1 sequence (P9WMR3 whole entry): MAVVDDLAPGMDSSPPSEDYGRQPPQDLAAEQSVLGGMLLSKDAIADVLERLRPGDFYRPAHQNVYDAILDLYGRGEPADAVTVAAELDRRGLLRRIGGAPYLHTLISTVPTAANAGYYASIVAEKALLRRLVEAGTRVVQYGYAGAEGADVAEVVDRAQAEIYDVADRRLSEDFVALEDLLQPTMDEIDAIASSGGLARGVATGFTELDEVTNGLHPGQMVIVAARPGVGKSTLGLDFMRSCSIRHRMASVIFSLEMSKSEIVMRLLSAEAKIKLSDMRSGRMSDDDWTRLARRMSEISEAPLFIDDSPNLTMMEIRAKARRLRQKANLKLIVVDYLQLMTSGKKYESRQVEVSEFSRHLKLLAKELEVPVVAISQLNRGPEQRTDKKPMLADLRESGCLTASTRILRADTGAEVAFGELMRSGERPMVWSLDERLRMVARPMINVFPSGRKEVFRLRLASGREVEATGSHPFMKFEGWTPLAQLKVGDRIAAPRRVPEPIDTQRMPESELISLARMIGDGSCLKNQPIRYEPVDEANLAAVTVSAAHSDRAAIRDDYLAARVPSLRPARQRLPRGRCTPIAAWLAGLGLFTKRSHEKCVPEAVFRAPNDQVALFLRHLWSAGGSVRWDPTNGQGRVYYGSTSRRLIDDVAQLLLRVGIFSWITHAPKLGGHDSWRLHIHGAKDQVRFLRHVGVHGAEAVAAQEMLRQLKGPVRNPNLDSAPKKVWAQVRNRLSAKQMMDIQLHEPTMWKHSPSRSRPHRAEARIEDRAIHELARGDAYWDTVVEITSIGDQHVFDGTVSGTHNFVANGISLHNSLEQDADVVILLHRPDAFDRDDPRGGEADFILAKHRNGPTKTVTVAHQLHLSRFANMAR

[2] = molecular target: T2, Sentrin-specific protease 7 (Homo sapiens, UniProt Q9BQF6);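 note: Luminescence-based dose-response confirmation of ultra-high-throughput screening hits, measuring inhibition of SENP7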
T2 sequence (Q9BQF6 whole entry): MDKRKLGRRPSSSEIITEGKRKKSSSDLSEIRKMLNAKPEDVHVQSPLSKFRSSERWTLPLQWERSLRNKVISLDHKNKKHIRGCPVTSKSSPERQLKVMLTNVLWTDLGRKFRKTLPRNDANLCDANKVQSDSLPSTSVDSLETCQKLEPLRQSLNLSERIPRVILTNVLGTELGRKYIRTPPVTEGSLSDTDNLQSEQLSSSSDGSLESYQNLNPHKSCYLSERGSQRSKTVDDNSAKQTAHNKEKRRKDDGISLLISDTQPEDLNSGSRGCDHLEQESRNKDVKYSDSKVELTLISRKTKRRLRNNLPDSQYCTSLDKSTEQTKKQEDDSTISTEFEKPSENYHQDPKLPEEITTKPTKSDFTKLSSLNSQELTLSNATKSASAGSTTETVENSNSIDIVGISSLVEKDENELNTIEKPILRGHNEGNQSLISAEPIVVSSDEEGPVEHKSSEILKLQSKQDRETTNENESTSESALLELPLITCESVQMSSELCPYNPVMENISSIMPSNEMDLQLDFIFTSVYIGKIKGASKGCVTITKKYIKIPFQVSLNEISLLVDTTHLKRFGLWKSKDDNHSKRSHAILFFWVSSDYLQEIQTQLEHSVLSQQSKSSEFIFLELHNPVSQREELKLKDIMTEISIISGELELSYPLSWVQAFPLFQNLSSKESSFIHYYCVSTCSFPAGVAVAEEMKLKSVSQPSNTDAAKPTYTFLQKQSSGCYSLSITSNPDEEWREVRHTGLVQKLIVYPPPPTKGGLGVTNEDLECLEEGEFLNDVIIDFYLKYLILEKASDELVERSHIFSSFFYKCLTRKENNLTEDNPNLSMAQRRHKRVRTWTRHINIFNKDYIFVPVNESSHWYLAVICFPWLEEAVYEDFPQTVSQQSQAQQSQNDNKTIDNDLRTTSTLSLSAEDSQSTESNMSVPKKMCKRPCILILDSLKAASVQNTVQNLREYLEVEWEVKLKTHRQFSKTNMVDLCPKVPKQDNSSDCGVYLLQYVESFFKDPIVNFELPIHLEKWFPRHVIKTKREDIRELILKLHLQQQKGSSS

[3] = molecular target: T3, Sentrin-specific protease 6 (Homo sapiens, UniProt Q9GZR1);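 note: Luminescence-based dose-response confirmatory assay of SENP6 inhibition, following up an ultra-high-throughput screen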
T3 sequence (Q9GZR1 whole entry): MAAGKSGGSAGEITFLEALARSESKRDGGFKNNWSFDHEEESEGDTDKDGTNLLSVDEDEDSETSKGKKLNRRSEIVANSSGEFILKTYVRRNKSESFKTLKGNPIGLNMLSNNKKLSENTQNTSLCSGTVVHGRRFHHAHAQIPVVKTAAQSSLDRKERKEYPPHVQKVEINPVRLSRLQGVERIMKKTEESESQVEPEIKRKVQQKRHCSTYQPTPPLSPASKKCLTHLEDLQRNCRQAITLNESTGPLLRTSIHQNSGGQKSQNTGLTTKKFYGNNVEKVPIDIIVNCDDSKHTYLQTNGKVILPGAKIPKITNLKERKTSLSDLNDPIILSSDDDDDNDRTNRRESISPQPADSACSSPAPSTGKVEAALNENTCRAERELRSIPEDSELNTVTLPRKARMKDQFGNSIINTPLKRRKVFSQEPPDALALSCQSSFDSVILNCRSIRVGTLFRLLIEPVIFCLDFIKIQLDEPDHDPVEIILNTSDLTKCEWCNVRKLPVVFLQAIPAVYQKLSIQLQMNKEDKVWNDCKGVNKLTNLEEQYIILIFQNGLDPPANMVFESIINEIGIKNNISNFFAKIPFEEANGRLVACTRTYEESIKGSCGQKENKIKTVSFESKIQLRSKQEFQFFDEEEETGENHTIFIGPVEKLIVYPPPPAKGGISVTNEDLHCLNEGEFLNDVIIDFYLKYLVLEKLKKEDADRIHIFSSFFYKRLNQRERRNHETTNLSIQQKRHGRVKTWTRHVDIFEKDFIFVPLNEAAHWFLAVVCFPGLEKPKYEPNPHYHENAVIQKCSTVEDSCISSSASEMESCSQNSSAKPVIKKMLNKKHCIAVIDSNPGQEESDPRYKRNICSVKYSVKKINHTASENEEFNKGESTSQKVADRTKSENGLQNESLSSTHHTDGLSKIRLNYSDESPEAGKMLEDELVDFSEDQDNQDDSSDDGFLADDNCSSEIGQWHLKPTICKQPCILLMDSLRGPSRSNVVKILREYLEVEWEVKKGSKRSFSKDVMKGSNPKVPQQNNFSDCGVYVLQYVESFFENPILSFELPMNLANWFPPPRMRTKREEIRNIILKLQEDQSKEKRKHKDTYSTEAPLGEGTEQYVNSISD

SMILES | AC50 [1] | IC50 [2] | IC50 [3]
O=C1/C(=N\c2cccc(O)c2)C(N2CCCCC2)=C(O)c2ccccc21 | 5.58 µM (active) | – | –
Cc1cc(/C=C2\SC(=S)N(C)C2=O)c(C)n1-c1ccc(O)cc1 | – | 5.42 µM (active) | 4.66 µM (active)
COC(=O)c1cccc(-c2ccc(C(c3c(C)n[nH]c3O)c3c(C)n[nH]c3O)o2)c1 | 0.398 µM (active) | – | –
Cc1ccc(C(=O)NNc2cc(N3CCCC3)nc(N3CCCC3)n2)cc1 | – | 1.74 µM (active) | 0.838 µM (active)
